The values below come from ChEMBL document CHEMBL3992516, “Synthesis and SAR evaluation of novel thioridazine derivatives active against drug-resistant tuberculosis” (Eur J Med Chem, 2017).

Each structure is given as a SMILES string. In brackets after ≈: the same amount, converted by molar mass. Activity calls are given as the source filed them.

In data set [1] the test system is Mycolicibacterium smegmatis. In words: Antimycobacterial activity against Mycobacterium smegmatis MC2 155 ATCC 700084 by microplate alamar blue assay. Format: functional.
Data set [2] relates to Mycobacterium tuberculosis. Put plainly: Antimycobacterial activity against Mycobacterium tuberculosis MC2 7000 by microplate alamar blue assay. Format: functional.
Data set [3] concerns Mycobacterium tuberculosis. Put plainly: Antimycobacterial activity against Mycobacterium tuberculosis H37Rv ATCC 27294 incubated for 7 days measured 24 hrs post incubation by resazurin microtiter assay. Format: functional. For orientation: Resazurin is reduced to fluorescent resorufin, in cell work by metabolically active cells.
In data set [4] the test system is Mycobacterium tuberculosis. Put plainly: Antimycobacterial activity against drug-succeptible Mycobacterium tuberculosis CF73 incubated for 7 days measured 24 hrs post incubation by resazurin microtiter assay. Format: functional.
Data set [5] concerns Mycolicibacterium smegmatis. In words: Inhibition of efflux pump in Mycobacterium smegmatis assessed as increase in accumulation of ethidium bromide at 0.25 times MIC measured every min for 60 mins by fluorimetric method.
In the next data set the test system is MRC5. In words: Cytotoxicity against human MRC5 cells assessed as decrease in cell viability after 24 hrs by resazurin reduction assay. Format: cell-based. To be noted: MRC5, 24 h.
The subject of the next data set is J774. Put plainly: Cytotoxicity against mouse J774 cells assessed as decrease in cell viability after 24 hrs by resazurin reduction assay. To be noted: J774, 24 h. Format: cell-based.
Data set [6] in a line: Selectivity index, ratio of IC50 for human MRC5 cells to MIC90 for drug-succeptible Mycobacterium tuberculosis CF73. To be noted: read-out: Selectivity Index. Format: toxicity.

As usually defined, the MIC is the smallest concentration in the dilution series that meets the test's criterion for growth inhibition. High values mean weaker potency, low ones greater potency. As to `CN1CCCCC1CCn1cnc2ccccc21` (stereo unspecified), the MIC in data set [1] and in data set [2] was more than 64 µg/mL in each case.

One may read the MIC90 as an inhibitory concentration at the 90% level, which refers to growth in some studies and to a panel of isolates in others. Low readings indicate higher susceptibility, high ones lower susceptibility. For `CN1CCN(CCCN2c3ccccc3Sc3ccccc32)CC1` [PERAZINE], the MIC came to 64 µg/mL (≈ 189 µM) in data set [1] and 27 µg/mL (≈ 79.5 µM) in data set [2]. Moreover, the figures for the MIC90 in data set [3] and in data set [4] were 100 µg/mL (≈ 295 µM) and more than 100 µg/mL, respectively. Also, the inhibition result in data set [5] is “Active”.

On to `CSc1ccc2c(c1)N(CCCN1CCN(c3ccccc3)CC1)c1ccccc1S2`, for which the MIC in data set [1] and in data set [2] was more than 64 µg/mL each time.

Consider `CSc1ccc2c(c1)N(CCC1CCCCN1C(C)C)c1ccccc1S2` (stereo unspecified), for which the MIC in data set [1] and in data set [2] was more than 64 µg/mL in each case.

For the compound `c1ccc(N2CCN(CCCN3c4ccccc4Sc4ccccc43)CC2)cc1`, the MIC in data set [1] and in data set [2] was more than 64 µg/mL each time.

As to `CSc1ccc2c(c1)N(CCCN1CCN(C34CC5CC(CC(C5)C3)C4)CC1)c1ccccc1S2`, the MIC in data set [1] and in data set [2] was 64 µg/mL (≈ 127 µM) in each case.

As for `c1ccc2c(c1)c1ccccc1n2CCC1CCCCN1` (stereo unspecified), the MIC in data set [1] and in data set [2] was more than 64 µg/mL each time.

For orientation: IC50 means the concentration at which inhibition is half-maximal. For the compound `Clc1ccc2c(c1)N(CCC1CCCCN1)c1ccccc1S2` (stereo unspecified), the figures for the MIC in data set [1] and in data set [2] were 16 µg/mL (≈ 46.4 µM) and 4 µg/mL (≈ 11.6 µM), respectively. For the same compound, the MIC90 worked out at 26 µg/mL (≈ 75.4 µM) in data set [3] and 11 µg/mL (≈ 31.9 µM) in data set [4]. For the same compound, the results for the IC50 in the data set on MRC5 and in the data set on J774 were 10 µg/mL (≈ 29 µM) and 10.7 µg/mL (≈ 31 µM), respectively. For the same compound, the selectivity ratio in data set [6] came to 0.9. In data set [5], the inhibition entry was “inactive”.

Consider `NNC(=O)c1ccncc1` [ISONIAZID], for which the MIC in data set [1] was found to be 4 µg/mL (≈ 29.2 µM); in data set [2] it was 0.125 µg/mL (≈ 0.911 µM). The MIC90 in data set [3] and in data set [4] was 0.03 µg/mL (≈ 0.219 µM) in each case.

As to `c1ccc2c(c1)Sc1ccccc1N2CCC1CCCCN1` (stereo unspecified), the MIC in data set [1] and in data set [2] was more than 64 µg/mL in each case. Further, the MIC90 was more than 64 µg/mL in data set [3] and 47 µg/mL (≈ 151 µM) in data set [4].

Take `CSc1ccc2c(c1)N(CCC1CCCCN1Cc1ccccc1)c1ccccc1S2` (stereo unspecified): the MIC amounted to 16 µg/mL (≈ 35.8 µM) in data set [1] and 8 µg/mL (≈ 17.9 µM) in data set [2]. Also, the results for the MIC90 in data set [3] and in data set [4] were more than 100 µg/mL and 37 µg/mL (≈ 82.8 µM), respectively.

For `CSc1ccc2c(c1)N(C(=O)CN1CCCCC1)c1ccccc1S2`, the MIC90 in data set [3] and in data set [4] was more than 100 µg/mL each time.

`CN1CCCCC1CCN1c2ccccc2Sc2ccccc21` (stereo unspecified): the MIC in data set [1] was found to be 32 µg/mL (≈ 98.6 µM); in data set [2], 16 µg/mL (≈ 49.3 µM). Besides, the MIC90 was more than 64 µg/mL in data set [3] and 47 µg/mL (≈ 145 µM) in data set [4].

`CN1CCCCC1CCn1c2ccccc2c2ccccc21` (stereo unspecified): the figures for the MIC in data set [1] and in data set [2] were more than 64 µg/mL and 64 µg/mL (≈ 219 µM), respectively. The MIC90 in data set [3] stood at 60 µg/mL (≈ 205 µM); in data set [4], 39 µg/mL (≈ 133 µM).

Consider `CSc1ccc2c(c1)N(CCC1CCCCN1)c1ccccc1S2` (stereo unspecified), for which the MIC in data set [1] came out at 16 µg/mL (≈ 44.9 µM); in data set [2], 8 µg/mL (≈ 22.4 µM). The MIC90 was 100 µg/mL (≈ 280 µM) in data set [3] and more than 100 µg/mL in data set [4].

In the case of `CSc1ccc2c(c1)N(CCCN1CCN(C3C4CC5CC(C4)CC3C5)CC1)c1ccccc1S2` (stereo unspecified), the minimal inhibitory concentration (MIC) was 4 µg/mL (≈ 7.91 µM) in data set [1] and more than 64 µg/mL in data set [2]. The MIC90 in data set [3] was found to be 43 µg/mL (≈ 85 µM); in data set [4] it was 98 µg/mL (≈ 194 µM).

Regarding `c1ccc2c(c1)ccn2CCC1CCCCN1` (stereo unspecified), the MIC in data set [1] turned out to be 1.6 µg/mL (≈ 7.01 µM). For the same compound, the MIC90 in data set [3] was 2.9 µg/mL (≈ 12.7 µM); in data set [4], 1 µg/mL (≈ 4.38 µM). Further, the values for the IC50 in the data set with MRC5 and in the data set with J774 were 15 µg/mL (≈ 65.7 µM) and 7.3 µg/mL (≈ 32 µM), respectively. In addition, in data set [6], the selectivity ratio was 15. Moreover, the inhibition result in data set [5] is “inactive”.

With `CSc1ccc2c(c1)N(CCC1CCCCN1C)c1ccccc1S2` (stereo unspecified) [THIORIDAZINE], the MIC in data set [1] is 16 µg/mL (≈ 43.2 µM); in data set [2], 8 µg/mL (≈ 21.6 µM). Moreover, the MIC90 is 10 µg/mL (≈ 27 µM) in data set [3] and 8 µg/mL (≈ 21.6 µM) in data set [4]. For the same compound, the half-inhibitory concentration (IC50) in the data set on MRC5 stood at 8.2 µg/mL (≈ 22.1 µM); in the data set with J774, 4.1 µg/mL (≈ 11.1 µM). Further, in data set [6], the selectivity ratio was found to be 1.

As for `CO[C@H]1/C=C/O[C@@]2(C)Oc3c(C)c(O)c4c(O)c(c(/C=N/N5CCN(C)CC5)c(O)c4c3C2=O)NC(=O)/C(C)=C\C=C\[C@H](C)[C@H](O)[C@@H](C)[C@@H](O)[C@@H](C)[C@H](OC(C)=O)[C@@H]1C` [RIFAMPIN], the MIC in data set [2] was determined as 0.25 µg/mL (≈ 0.304 µM). The MIC90 in data set [3] came out at 0.3 µg/mL (≈ 0.365 µM); in data set [4] it was 8 µg/mL (≈ 9.72 µM).

Consider `CSc1ccc2c(c1)N(C(=O)CN1CCN(C)CC1)c1ccccc1S2`, for which the MIC in data set [1] and in data set [2] was more than 64 µg/mL throughout.

As for `CN1CCN(CCCn2ccc3ccccc32)CC1`, the MIC in data set [1] and in data set [2] was more than 64 µg/mL throughout.

For the compound `CCCN1CCCCC1CCN1c2ccccc2Sc2ccc(SC)cc21` (stereo unspecified), the MIC is more than 64 µg/mL in data set [1] and 64 µg/mL (≈ 161 µM) in data set [2]. In data set [3], this compound had an MIC90 of 45 µg/mL (≈ 113 µM).

For `CSc1ccc2c(c1)N(CCCN1CCN(C)CC1)c1ccccc1S2`, the MIC was 32 µg/mL (≈ 83 µM) in data set [1] and 27 µg/mL (≈ 70 µM) in data set [2]. The MIC90 in data set [3] was 69 µg/mL (≈ 179 µM); in data set [4], 27 µg/mL (≈ 70 µM). Also, the inhibition entry in data set [5] was “Active”.

Regarding `Clc1ccc2c(c1)N(CCCN1CCN(c3ccccc3)CC1)c1ccccc1S2`, the MIC in data set [1] and in data set [2] was more than 64 µg/mL each time.

As for `CN1CCCCC1CCN1c2ccccc2Sc2ccc(Cl)cc21` (stereo unspecified), the MIC in data set [1] was found to be 16 µg/mL (≈ 44.6 µM); in data set [2], 8 µg/mL (≈ 22.3 µM). Moreover, the MIC90 in data set [3] was 19 µg/mL (≈ 52.9 µM); in data set [4] it was 16 µg/mL (≈ 44.6 µM). The IC50 in the data set with MRC5 came to 13 µg/mL (≈ 36.2 µM); with J774 it was 8.4 µg/mL (≈ 23.4 µM). For the same compound, the selectivity ratio in data set [6] turned out to be 0.8.

Turning to `CSc1ccc2c(c1)N(CCCN1CCSCC1)c1ccccc1S2`, the MIC in data set [1] and in data set [2] was more than 64 µg/mL in each case.

Turning to `Clc1ccc2c(c1)N(CCCN1CCSCC1)c1ccccc1S2`, the MIC in data set [1] and in data set [2] was more than 64 µg/mL throughout.

On to `c1ccc2c(c1)ncn2CCC1CCCCN1` (stereo unspecified), for which the MIC in data set [1] and in data set [2] was more than 64 µg/mL each time. The MIC90 was 100 µg/mL (≈ 436 µM) in data set [3] and more than 100 µg/mL in data set [4].
